Active and inactive are the calls of the source.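 How the source made its calls: active means compounds giving half or more protection of infected cells from virus-caused growth loss, again on retest; inactive means the rest.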 Where a SMILES comes first, the peptide text is derived from it. The star is where a group is joined. Boc = CC(C)(C)OC(=O)*; OBn = c1ccc(CO*)cc1; Bn = c1ccc(C*)cc1

Among the data in PubChem BioAssay AID179 (DTP/NCI, 2004) are EC50, IC50 and outcome values, retold here.

The assay concerns CEM cells HIV-1 protection, formazan growth assay. The assay is described as follows: NCI AIDS Antiviral Assay. Particulars: for IC50: measured here: growth of uninfected CEM cells. A digest of the protocol: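 Category rules: moderately active means at least 50% protection on retest, and confirmed active means 100% protection reproducibly. The underlying data came from a formazan growth assay in HIV-1-infected CEM cells.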

Regarding `O=C(Nc1ccc(Cl)cc1)c1cc(S(=O)(=O)NC2=NC(c3ccccc3)c3cc(Cl)ccc3N2)c(SSc2cc(Cl)c(C(=O)Nc3ccc(Cl)cc3)cc2S(=O)(=O)NC2=NC(c3ccccc3)c3cc(Cl)ccc3N2)cc1Cl` (configuration not stated), the EC50 (commonly the concentration needed to bring the measured effect to its halfway point) was more than 200 µM and the 50% inhibitory concentration (IC50) (as a rule, the midpoint of a concentration-inhibition curve) is more than 200 µM. Take `O=C1/C(=C/c2cccc(Br)c2)Cc2ccccc21`: the EC50 was more than 200 µM and the IC50 turned out to be 17 µM. For the molecule `CS(=O)(=O)OC1C(COC(=O)c2ccccc2)OC2C1Oc1nc(=O)ccn12` (configuration not stated), the EC50 was more than 200 µM and the half-inhibitory concentration (IC50) was more than 200 µM. For `CC1=C(C)CP(=O)(c2ccccc2)C1`, the EC50 is 0.0631 µM and the half-inhibitory concentration (IC50) is more than 200 µM.

Consider `CC1CCCN1c1ccnc2cc(Cl)ccc12` (configuration not stated), for which the EC50 was more than 1000 µM and the concentration for half-maximal inhibition (IC50) amounted to 288 µM. Taken in the same sequence, the figures for `O=C(NC(=Nc1ccccc1)SCSC(=Nc1ccccc1)NC(=O)c1ccco1)c1ccco1` were more than 14.5 µM and more than 14.5 µM. As to `CCCNC(=O)C(C)(Cl)C(=O)c1ccccc1O` (configuration not stated), the 50% effective concentration (EC50) was more than 479 µM and the IC50 came to 209 µM. In the same order, the values of `CCOC(=O)/C(C#N)=C/c1ccc(OC)cc1` are more than 155 µM and more than 155 µM. In the case of `CCOC(=O)C(C#N)C(C)CC` (configuration not stated), the EC50 is more than 200 µM and the half-inhibitory concentration (IC50) was more than 200 µM.

Consider `CC1(C)CNC[C@@](C)(O)C(=O)[N-]C(C)(C)CNC[C@](C)(O)C(=O)[N-]1.[Ni+2]`, for which the EC50 is more than 200 µM and the IC50 was 120 µM. `Cc1ncc([N+](=O)[O-])n1CC(O)Cn1cnc([N+](=O)[O-])n1` (configuration not stated): the EC50 was more than 200 µM and the IC50 was more than 200 µM.

Consider `CCOC(=O)C(CCSC)(CCSC)C(=O)OCC`, for which the EC50 is more than 200 µM and the half-maximal inhibitory concentration (IC50) was more than 200 µM. Consider `Cc1c(C)c(C)c(-n2c(=O)n(C)c(=O)n2C(C)(C)C)c(C)c1C`, for which the EC50 was more than 200 µM and the IC50 was 3.31 µM. Taken in the same sequence, the figures for `O=C(c1nc2ccc(Cl)cc2[nH]c1=O)C(O)c1cccc([N+](=O)[O-])c1` (configuration not stated) were more than 186 µM and 12 µM.

For the molecule `CC(C)(O)c1cc2c(cc1C(C)(C)O)-c1ccccc1-2`, the EC50 was more than 200 µM and the IC50 was more than 200 µM.

`O=C(N/N=C(/c1nc2ccc(Cl)cc2[nH]c1=O)C(O)c1ccc(Cl)cc1Cl)c1ccncc1` (configuration not stated): the EC50 was more than 501 µM and the IC50 came to 162 µM. With `CC1(C)CC(=O)C2=C(C1)Nc1ccccc1NC2c1ccc([N+](=O)[O-])cc1` (configuration not stated), the EC50 is more than 200 µM and the IC50 is 29.5 µM. Regarding `O=C1OC(c2cccc(C(F)(F)F)c2)(c2cccc(C(F)(F)F)c2)c2ccc3ccccc3c21`, the result was inactive. Turning to `c1ccc(P2c3ccccc3Nc3ccccc32)cc1`, the EC50 was more than 200 µM and the IC50 came out at 61.7 µM. Taken in the same sequence, the figures for `Clc1cc(Cl)nc(Nc2ccc3c(c2)CCC3)n1` were more than 200 µM and 28.2 µM. In the same order, the values of `COC(=O)c1cc(C(=CC=O)c2cc(Cl)c(OC)c(C(=O)OC)c2)cc(Cl)c1OC` are more than 200 µM and 8.91 µM. Consider `C1CNCCNCCNCCN1`, for which the outcome was inactive.

For `COc1c2c(cc3c1OCO3)[C@]13C=C[C@H](OC)C[C@H]1N(C2)CC3O` (some centres not stated), the EC50 was more than 126 µM and the 50% inhibitory concentration (IC50) was more than 126 µM.

Take `Oc1c(C2=NNC(c3ccc(Cl)cc3Cl)C2)ccc2ccccc12` (configuration not stated): the EC50 was more than 200 µM and the IC50 worked out at 32.4 µM. Turning to `Clc1cccc(NC2=NCCN=C(Nc3cccc(Cl)c3)SS2)c1`, the result was inactive.

For `N#C/C(=C\c1c(Cl)cccc1Cl)c1ccc([N+](=O)[O-])cc1`, the EC50 is more than 200 µM and the half-inhibitory concentration (IC50) was more than 200 µM. Consider `Nc1ccc(N=Nc2ccccc2)c(N)n1`, for which the EC50 was more than 200 µM and the IC50 was 32.4 µM. Consider `O=C(Cc1ccccc1)NC(=O)Nc1ccccc1`, for which the EC50 was more than 20.4 µM and the IC50 was more than 20.4 µM. On to `CCO/C=N/c1[nH]c(C)c(Cc2ccccc2)c1C#N`, for which the EC50 is more than 50.1 µM and the IC50 is more than 50.1 µM.

For `COC(=O)C12N=NN(c3ccccc3)C1(C(=O)OC)C1CCC2C1` (configuration not stated), the EC50 is more than 200 µM and the IC50 is more than 200 µM. As for `O=c1cc(-c2ccc(O)cc2)oc2cc(O)cc(O)c12`, the EC50 is more than 55 µM and the IC50 came out at 20.4 µM. In the case of `Cc1cc2c(C(C)C)c(O)c(O)c(C=O)c2c(O)c1-c1c(C)cc2c(C(C)C)c(O)c(O)c(C=Nc3ccc(Cc4ccc(N)cc4)cc3)c2c1O`, the EC50 is 5.5 µM and the IC50 was found to be 44.7 µM. In the case of `O=c1c2c(oc3cc(OCC4CO4)ccc13)CCC2` (configuration not stated), the EC50 is more than 200 µM and the half-maximal inhibitory concentration (IC50) amounted to 50.1 µM. Taken in the same sequence, the figures for `COc1cc2ccc(=O)oc2c2c1OC(C)(C)[C@H](OC(=O)C13CCC(C)(C(=O)O1)C3(C)C)[C@@H]2OC(=O)C12CCC(C)(C(=O)O1)C2(C)C` (some centres not stated) were more than 200 µM and more than 200 µM.

As to `CCCCCCSC[C@H](OC(C)=O)[C@@H](OC(C)=O)[C@@H](OC(C)=O)[C@@H](COC(C)=O)OC(C)=O`, the EC50 was more than 200 µM and the IC50 is 53.7 µM. For `O=C1CCC(=O)N1C(c1ccccc1)(c1ccccc1)N1C(=O)CCC1=O`, the EC50 was more than 200 µM and the IC50 turned out to be 15.1 µM. On to `CCCCCCCCCCCCCCCC(=O)Nc1ccn(C2CCC(COP(=O)(O)OCC3OC(n4ccc(NC(=O)CCCCCCCCCCCCCCC)nc4=O)CC3OP(=O)(O)OCC3OC(n4cc(C)c(=O)[nH]c4=O)CC3N=[N+]=[N-])O2)c(=O)n1` (configuration not stated), for which the EC50 is 0.0282 µM and the IC50 worked out at 15.1 µM. For the molecule `O=c1onc2n1-c1cc(Cl)ccc1C(=S)N1CSCC21` (configuration not stated), the EC50 was more than 200 µM and the IC50 was found to be 105 µM. In the case of `CCOC(=O)NC(=O)c1cn(CCCOC(=O)NCCCCCCNC(=O)OCCCn2c(=O)c(C(=O)NC(=O)OCC)cn(C)c2=O)c(=O)n(C)c1=O`, the EC50 is more than 33.9 µM and the IC50 was more than 33.9 µM.

With `C#CC(C)(C)Oc1ccc2c(=O)c(-c3ccccc3)coc2c1`, the EC50 is more than 200 µM. Consider `CC(C)CC(NC(=O)C(Cc1ccccc1)NC(=O)C(COCc1ccccc1)NC(=O)OC(C)(C)C)C(=O)OCc1ccccc1` (stereo not drawn) (Boc-Ser(Bn)-Phe-Leu-OBn; configuration not given here), for which the EC50 was more than 200 µM and the 50% inhibitory concentration (IC50) turned out to be 13.2 µM. In the same order, the values of `O=C(c1ccccc1)c1ccc(COc2ccc(C(c3c(O)c4ccccc4oc3=O)c3c(O)c4ccccc4oc3=O)cc2)cc1` are more than 200 µM and 35.5 µM. `CCCCCCCCCCCCC1=C(OC)C(=O)c2cccnc2C1=O`: the outcome was inactive. Regarding `CCCCCCCCCCC(=O)CC(=O)c1c(O)cccc1O`, the result was inactive. For `O=C1OC2(OC2c2ccccc2)c2ccccc21` (configuration not stated), the EC50 was more than 200 µM and the IC50 was more than 200 µM.

Turning to `CCOC(=O)c1cnc(-n2[nH]c(C)c(CCO)c2=O)[nH]c1=O`, the EC50 is more than 200 µM and the IC50 is more than 200 µM. As for `COc1ccc(C(c2c(O)c3ccccc3n(-c3ccccc3)c2=O)c2c(O)c3ccccc3n(-c3ccccc3)c2=O)cc1`, the EC50 is more than 8.71 µM and the IC50 was more than 8.71 µM. On to `Cc1ccc([N+](=O)[O-])c2c(NCCNC(=O)Cn3ccnc3[N+](=O)[O-])ccnc12`, for which the EC50 is more than 100 µM and the 50% inhibitory concentration (IC50) is 79.4 µM.

Regarding `CC12CC3CC(C)(C1)CC(N=[N+]=[N-])(C3)C2`, the EC50 was more than 91.2 µM and the 50% inhibitory concentration (IC50) is more than 91.2 µM. Take `C/C(=N\NC(=O)C[N+](C)(C)C)c1sc(-c2cccnc2)nc1C`: the EC50 is more than 135 µM and the IC50 worked out at 72.4 µM. In the same order, the values of `O=c1nc2sc3ccc4ccccc4c3n2[nH]c1=O` are more than 47.9 µM and more than 47.9 µM.

With `CC1(Br)C(=O)NC(=O)N([C@H]2C[C@H](O)[C@@H](CO)O2)C1N=[N+]=[N-]` (some centres not stated), the EC50 was 145 µM and the concentration for half-maximal inhibition (IC50) is more than 200 µM. As to `Cc1cc(C2(O)C=C(C(C)(C)C)C(=O)C(C(C)(C)C)=C2)c(C)cc1C1(O)C=C(C(C)(C)C)C(=O)C(C(C)(C)C)=C1`, the EC50 was more than 151 µM and the IC50 was more than 151 µM. As for `CCCCN(CCCC)C(=S)SSC(=S)N(CCCC)CCCC`, the EC50 is more than 200 µM and the IC50 was determined as 5.25 µM. On to `CCOP(=O)(OCC)c1cc(NC(=O)c2cc(NC(=O)c3cc(NC(=O)Nc4cc(C(=O)Nc5cc(C(=O)Nc6cc(P(=O)(OCC)OCC)c7cccc(P(=O)(OCC)OCC)c7c6)n(C)c5)n(C)c4)cn3C)cn2C)cc2c(P(=O)(OCC)OCC)cccc12`, for which the EC50 was more than 200 µM and the 50% inhibitory concentration (IC50) was more than 200 µM. As to `CCCCCCC(C)c1ccc2c(c1)C(=O)c1nc3ccncc3c(=O)n1-2` (configuration not stated), the EC50 was more than 200 µM and the IC50 is 0.955 µM. Turning to `CCOc1ccc(NCC(=O)N2CC(=O)Nc3ccccc32)cc1`, the EC50 was more than 22.4 µM and the half-maximal inhibitory concentration (IC50) is more than 22.4 µM.

`C[N+]1=C2[B-](C(C)(C)C)=[N+](C(C)(C)C)[B-]2(C(C)(C)C)[N+](C)=C2[B-](C(C)(C)C)=[N+](C(C)(C)C)[B-]21C(C)(C)C` (configuration not stated): the EC50 is more than 50.1 µM and the IC50 was more than 50.1 µM. Take `CC1(C)OC2C(COCc3ccccc3)=CC(n3ccc(=O)[nH]c3=O)C2O1` (configuration not stated): the EC50 was more than 200 µM and the half-maximal inhibitory concentration (IC50) was more than 200 µM. Consider `COc1ccccc1OCC(COC(=O)Nc1ccc(C)cc1)OC(=O)Nc1ccc(C)cc1` (configuration not stated), for which the EC50 was more than 77.6 µM and the half-inhibitory concentration (IC50) turned out to be 72.4 µM. In the same order, the values of `Cc1ccccc1NC(=O)C1C(=O)N(c2ccccc2C)C(=O)/C1=N\NC(N)=O` (configuration not stated) are more than 13.2 µM and more than 13.2 µM.

Consider `CCOP(=O)(CC1CC(O)(CNc2cc(Cl)nc(N)n2)C1)OCC` (configuration not stated), for which the EC50 is more than 200 µM and the IC50 is more than 200 µM. Turning to `COc1ccc(N=C2C(=S)N(c3ccc(OC)cc3)/C(=N/S(=O)(=O)c3ccccc3)N2c2ccccc2)cc1`, the EC50 is more than 20 µM and the IC50 came to 0.389 µM. Taken in the same sequence, the figures for `CNC(=O)c1n[nH]n(Cc2ccccc2)c1=S` were more than 200 µM and more than 200 µM. Taken in the same sequence, the figures for `COc1ccc(-c2c(C3=NCCN3)nnn2-c2ccc(Cl)cc2)cc1` were more than 126 µM and 91.2 µM. In the same order, the values of `CC(C)=C=CCN(C)Cc1ccccc1` are more than 309 µM and more than 309 µM. For the molecule `COc1ccc2c(c1)N1CCc3cc(OC)c(OC)cc3C1C2` (configuration not stated), the outcome was inactive.
